In patent US20020164367A1, “Botanical drug for increasing immunity and decreasing side effects of chemotherapy” (priority 2001, published 2002):

Columns and labels:
chick myocardial cell = assay: Survival rate of chick myocardial cells after Adriamycin induced damage (ABC immunoperoxidase staining); type: cell-based; settings: Adriamycin 10μ for 24 hours after 4 days in culture; BDI 150 μg/ml
Procedure: Hears were removed from 11 days embryos and were dissociated at 37 C. for 45 minutes with 0.25% trypsin (sigma, type III), 0.025% collagenase (sigma, type I), and 0.005% pancreatin (NBCO) prepared in calcium and magnesium free saline G containing 4% chicken serum. Then the tissue was dispersed into a single cell suspension in culture medium containing 5 g/ml DNAse I (sigma). Viable cell counts were determined by hemocyometer counting. Cells were dispersed into 60 mm culture disher (surface area 2000 mm^2) at densities of 200 cells/mm^2.
Cultures were maintained in Ham's F-12K cln^− modified and supplemented with 5% fetal bovine serum. Tissue culture plates were incubated under at constant 5% CO2 and 95% air at 37° C. Cells counted—all cells were counted in 20 randomly selected fields across the entire dish. A Zeiss microscope 25× objective having a field of view of 0.32 mm^2 was used for cell counting.
Monoclonal antibodies (diluted 1:1000 in PBS/BSA) were used. Immunostaining procedure used modified method of immunoperoxidase staining as follows.
Culture plates were added antibody of cardiac myosin before 3 hours for staining. Then culture plates continuous incubated 3 hours at 37° C.
Cell determined by recording the color and the number of microscopic fields (250×). Normal cells were light green and dead cells were brown or very dark green. […]

Interleukin-2 (rIL-2) = assay: Effect of BDI on Interleukin-2 (rIL-2); type: in vivo; settings: n=10
Source text: The methods of determination rIL-2 were regular.

[1] = system: bone marrow stem cells (CFU-S); settings: mice, n=10
peritoneal macrophage = settings: macrophages with phagocytized chick red blood cells per 100 macrophages; BDI 5.5 mg/kg ip daily for 5 days; cyclophosphamide 4.5 mg/kg ip
Procedure: Male mice weight 18-20 g were used in the experiments and were divided into treated (BDI) and control groups. The dosage of BDI was 5.5 mg/kg injected intraperitoneally. The control mice were injected with same volume of normal saline. These injections were repeated daily for 5 days, both treated and control group were injected intraperitoneally with cyclosphosphamide.
Added 0.02 ml of 5% washed chick red blood cell suspension to 0.5 ml of the peritoneal exudates. Shook gently to mix and incubate at 37° C. for 5 minutes. Dipped two cover slips, closed to each other, in the above mixture and incubated for 30 minutes for the migration of the macrophages along the cover slips, fixed and stained with Sharma stain. Examined microscopically for:
Phagocytic rate—number of macrophages with phagocytized chick red blood cells per 100 macrophages counted.

lymphocytes = settings: 3H-TdR 1 μCi/ml, PHA stimulated
Procedure: 0.2 ml of formic acid was then added for digestion till the precipitate was dissolved.

white blood cells = settings: rats, 10 days of treatment
host cell = settings: by weight; cited from earlier work
DNA viruses = settings: by weight; cited from earlier work

## COc1cccc2c1C(=O)c1c(O)c3c(c(O)c1C2=O)C[C@@](O)(C(=O)CO)C[C@@H]3O[C@H]1C[C@H](N)[C@H](O)[C@H](C)O1 [Adriamycin]
Chick myocardial cell
  Survival rate (living/taotalx 100%): 36.0 ± 0.25 (*20) %

## O=P1(N(CCCl)CCCl)NCCCO1 (centres unmarked) [Cyclophosphamide]
Interleukin-2 (rIL-2)
  IL-2 (U/ml) ± SD: 47.5 ± 5.5 U/ml
[1]
  Mean (CFU-S ± SD): 7.6 ± 0.8
Peritoneal macrophage
  Phagocytic (rate ± SD): 8.5 ± 0.90
lymphocytes
  CPM ± SD (lymphoblastoid transformation): 600 ± 65 CPM
White blood cells
  White blood cells x 10^3/cm^3 ± SD: 6.0 ± 0.70 10^3/cm^3

## Nc1ccn([C@@H]2O[C@H](CO)[C@@H](O)[C@@H]2O)c(=O)n1 [Cytarabine]
Host cell
  Toxicity for host cell relative to Idoxuridine: 10 times
DNA viruses
  Effectiveness relative to Idoxuridine: about 10 times
